# In patent US11253517B2, “Small molecule regulators of steroid receptor coactivators and methods of use thereof” (BAYLOR COLLEGE OF MEDICINE, priority 2016, dated 2022):
# Key:
# [1] = tested on: panel of 24 kinases; experiment: Kinase-Glo Luminescent Kinase Assay, panel of 24 kinases; format: biochemical; settings: 1000 nM, 50 nM and 5 nM, versus DMSO vehicle control
# Method: (§1) SI-12 was also tested for its ability to disrupt kinase activity. The effects of the compound were tested on a panel of 24 kinases using a Kinase-Glo Luminescent Kinase Assay system (Promega; Madison, Wis.). SI-12 was tested, at concentrations of 1000 nM, 50 nM, and 5 nM, for its ability to interfere with recombinant kinases in the assay system. The amount of ATP to ADP conversion in the presence of SI-12 was compared to a DMSO vehicle control. The values shown in Table 3 represent the percentage of kinase activity compared to a DMSO vehicle control.
# (§2) In Table 3, “−” represents less than 20% inhibition; “+” represents from 20% to 40% inhibition; “++” represents from 40% to 60% inhibition; and “+++” represents greater than 60% inhibition.
# [2] = target: T1, IKKb (Homo sapiens, UniProt O14920); experiment: Kinase-Glo Luminescent Kinase Assay; format: biochemical
# T1 construct: purchased Promega
# T1 sequence (O14920 1-756): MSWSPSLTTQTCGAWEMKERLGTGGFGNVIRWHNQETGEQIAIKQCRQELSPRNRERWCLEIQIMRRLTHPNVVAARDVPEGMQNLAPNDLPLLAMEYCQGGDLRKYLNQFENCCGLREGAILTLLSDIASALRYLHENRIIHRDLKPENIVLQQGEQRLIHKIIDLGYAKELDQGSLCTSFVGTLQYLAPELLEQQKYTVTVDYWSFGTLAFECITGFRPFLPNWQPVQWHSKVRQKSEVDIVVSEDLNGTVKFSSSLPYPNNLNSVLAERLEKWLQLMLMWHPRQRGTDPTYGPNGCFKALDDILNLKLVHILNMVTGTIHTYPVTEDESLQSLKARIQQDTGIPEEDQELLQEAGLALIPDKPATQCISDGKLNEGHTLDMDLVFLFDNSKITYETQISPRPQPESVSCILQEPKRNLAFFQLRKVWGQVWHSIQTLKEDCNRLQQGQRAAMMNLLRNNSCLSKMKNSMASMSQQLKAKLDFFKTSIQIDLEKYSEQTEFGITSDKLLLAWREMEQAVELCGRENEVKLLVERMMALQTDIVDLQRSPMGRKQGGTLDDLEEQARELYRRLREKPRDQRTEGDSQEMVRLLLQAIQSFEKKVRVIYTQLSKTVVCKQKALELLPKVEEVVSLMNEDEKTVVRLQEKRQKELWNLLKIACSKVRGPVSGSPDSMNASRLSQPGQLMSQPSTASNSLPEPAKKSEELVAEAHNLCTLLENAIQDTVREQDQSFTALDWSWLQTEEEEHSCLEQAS
# Method: as §1, §2
# [3] = target: T2, IRAK4 (Homo sapiens, UniProt Q9NWZ3); experiment: Kinase-Glo Luminescent Kinase Assay; format: biochemical
# T2 construct: purchased Promega
# T2 sequence (Q9NWZ3 1-460): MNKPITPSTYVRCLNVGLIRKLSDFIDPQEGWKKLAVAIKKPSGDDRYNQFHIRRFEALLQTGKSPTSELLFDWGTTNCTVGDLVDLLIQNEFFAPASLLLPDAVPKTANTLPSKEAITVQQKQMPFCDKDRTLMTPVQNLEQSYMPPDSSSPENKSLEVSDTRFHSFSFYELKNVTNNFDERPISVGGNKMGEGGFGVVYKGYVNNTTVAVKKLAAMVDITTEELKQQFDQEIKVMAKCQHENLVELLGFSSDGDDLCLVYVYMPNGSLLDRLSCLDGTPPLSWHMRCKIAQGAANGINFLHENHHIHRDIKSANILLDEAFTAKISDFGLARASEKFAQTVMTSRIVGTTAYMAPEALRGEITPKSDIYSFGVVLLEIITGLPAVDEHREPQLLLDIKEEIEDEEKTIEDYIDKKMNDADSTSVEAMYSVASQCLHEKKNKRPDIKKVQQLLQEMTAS
# Method: as §1, §2
# [4] = target: T3, FGFR1 (Homo sapiens, UniProt P11362); experiment: Kinase-Glo Luminescent Kinase Assay; format: biochemical
# T3 construct: purchased Promega
# Method: as §1, §2
# [5] = tested on: Panc-1-Luc pancreatic tumor; experiment: Orthotopic pancreatic cancer mouse model (Panc-1-Luc); format: in vivo, SCID mice
# Method: FIG. 3, Panels A-E show the therapeutic efficacy of SI-12 in an orthotopic pancreatic cancer mouse model. […] Data represent mean±SEM. *, P<0.05, **, P<0.01 by student t-test.
# SI-12 was tested in pancreatic, lung, brain, and melanoma cancers. A representative example for pancreatic tumor treatment is described below. Panc-1 cells stably expressing firefly luciferase cells (Panc-1-Luc, 0.5×10^6 cells per mouse) were injected into the tail of pancreas of SCID mice (6-7 weeks). The mice were randomized into two groups based on luciferase imaging (n=8 per group). Eight days after tumor inoculation, the two groups were administered SI-12 (10 mg/kg, i.p. injection, once daily) or an equal volume of vehicle control five times per week. Tumor growth and systemic toxicity were monitored based on luciferase imaging and body weight weekly. The mice were sacrificed after eight weeks of treatment. […] At the end of the experiment, tumors were harvested and weighed. The average tumor weight in SI-12 treated mice was ˜30% of the vehicle treated counterparts (FIG. 3D).
# To test whether SI-12 causes SRC-3 down-regulation in vivo, the SRC-3 levels in tumor tissues were measured by immunohistochemistry (IHC). Multiple tumor tissues (N>3) collected from both the control group and the SI-12 treated group were processed and immunohistochemically stained with an anti-SRC-3 antibody or an anti-Ki-67 antibody. […] Ki-67, a cell proliferation marker, was also immunochemically analyzed.
# [6] = 10 mg/kg i.p. once daily, five times per week, eight weeks
# T3 sequence (P11362 22-822): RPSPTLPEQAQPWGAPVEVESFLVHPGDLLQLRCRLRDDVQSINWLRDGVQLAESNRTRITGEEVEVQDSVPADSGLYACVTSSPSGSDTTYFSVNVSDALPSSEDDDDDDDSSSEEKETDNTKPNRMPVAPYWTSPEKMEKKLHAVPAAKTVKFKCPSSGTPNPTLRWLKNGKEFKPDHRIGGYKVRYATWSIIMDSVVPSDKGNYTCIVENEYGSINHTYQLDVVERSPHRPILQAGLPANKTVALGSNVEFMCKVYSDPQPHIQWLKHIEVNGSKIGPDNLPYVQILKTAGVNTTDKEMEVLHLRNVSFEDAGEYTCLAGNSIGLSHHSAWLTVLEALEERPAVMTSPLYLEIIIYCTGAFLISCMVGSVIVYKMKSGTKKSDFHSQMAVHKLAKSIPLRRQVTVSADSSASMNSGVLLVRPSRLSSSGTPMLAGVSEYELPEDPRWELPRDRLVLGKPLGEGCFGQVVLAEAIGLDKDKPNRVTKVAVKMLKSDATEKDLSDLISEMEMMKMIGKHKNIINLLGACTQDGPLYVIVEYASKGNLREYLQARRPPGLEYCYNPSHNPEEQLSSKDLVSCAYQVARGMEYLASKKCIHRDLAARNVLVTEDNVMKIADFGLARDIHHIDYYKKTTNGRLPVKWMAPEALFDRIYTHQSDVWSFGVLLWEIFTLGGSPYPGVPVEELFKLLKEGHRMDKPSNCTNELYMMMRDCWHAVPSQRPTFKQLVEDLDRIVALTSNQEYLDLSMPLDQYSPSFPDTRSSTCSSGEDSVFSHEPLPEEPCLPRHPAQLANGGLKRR
compound,measurement,setting,value
CC(=NNc1nc2cc(F)c(F)cc2n1C)c1ccc(F)cn1 [SI-12],"effects on kinase activity, panel overall",[1],minimal effects on kinase activity
same,IKKb kinase inhibition,[2]; 5 nM,++ (from 40% to 60% inhibition)
same,IKKb kinase inhibition,[2]; 50 nM,+++ (greater than 60% inhibition)
same,IKKb kinase inhibition,[2]; 1000 nM,+++ (greater than 60% inhibition)
same,IRAK4 kinase inhibition,[3]; 5 nM,− (less than 20% inhibition)
same,IRAK4 kinase inhibition,[3]; 50 nM,− (less than 20% inhibition)
same,IRAK4 kinase inhibition,[3]; 1000 nM,− (less than 20% inhibition)
same,FGFR1 kinase inhibition,[4]; 5 nM,+ (from 20% to 40% inhibition)
same,FGFR1 kinase inhibition,[4]; 50 nM,− (less than 20% inhibition)
same,FGFR1 kinase inhibition,[4]; 1000 nM,− (less than 20% inhibition)
same,body weight loss,[5]; [6],minimal body weight loss
same,pancreatic tumor growth (luciferase imaging),[5]; [6],significantly delayed pancreatic tumor growth
same,average tumor weight relative to vehicle treated counterparts,"[5]; end of experiment, after eight weeks of treatment, 10 mg/kg i.p.",~30%
same,Ki-67 positive cells in tumor tissues (IHC),"[5]; versus control group, anti-Ki-67 antibody",dramatically fewer Ki-67 positive cells
same,SRC-3 levels in tumor tissues (IHC),"[5]; versus vehicle treated control group, anti-SRC-3 antibody",significantly lower than the vehicle treated control group
